# Test results as given in patent publication US6476036B1, “Sodium salt of 3-(4-cinnamyl-1-piperazinyl)-imino-methyl rifamycin SV” (priority 1998, dated 2002).
# Like-named read-outs stand apart in the source and are kept apart here.
# Tests used:
# [1] = mice; cited from earlier work
# Solubility = assay type: physicochemical; settings: water and organic solvents
# Method: 4,62 g (0,005 g/moll) of 3-(4-cinnamyl-1-piperazinyl)-iminomethyl rifamycin SV is suspended in 40 ml methanol and 0,1 g sodium ascorbate dissolved in 1 ml water is added. To the obtained suspension 0,9 ml of 30% methanol solution of sodium methylate (equimolar quantity) is added. The suspension immediately turns into a solution because of the formation of the sodium salt. The reaction mixture is filtered to remove the unsolved sediment of sodium ascorbate, and the solvent is concentratrated in vacuum and dried to give the soduim salt as a dark-red solid powder. This product has high purity and the yield is practically quantitative.
# [2] = Non-model pharmacokinetics in mice; settings: base 20 mg/kg
# [3] = rabbit, in vivo, 20 mg/kg
# [4] = mouse, in vivo, 20 mg/kg
# [5] = rat, in vivo, 20 mg/kg
# generalized tuberculosis = settings: doses 10 mg/kg, after 60 days of treatment, test animals; cited from earlier work
# [6] = tested on: Gram-positive microorganisms including aerobic, anaerobic and Mycobacterium (typical and atypical); experiment: In vitro antibacterial activity; assay type: cell-based; settings: in comparison with the initial compound T-9
# [7] = Stability of water solutions; assay type: physicochemical
Molecule,acute toxicity [1] [mg/kg],solubility (Solubility),T1/2 ([2]; p.o) [h],AUC [3] [µg·h/mL],Cmax [3] [ng/mL],T1/2 [3] [h],Tmax [3] [h],AUC [4] [µg·h/mL],CL [4] [mL·min/kg],Cmax [4] [ng/mL],Tmax [4] [h],AUC [5] [µg·h/mL],Cmax [5] [ng/mL],T1/2 [5] [h],Tmax [5] [h],therapeutic activity in generalized tuberculosis (generalized tuberculosis),antibacterial activity in vitro [6],T1/2 ([2]; i.v) [h],stability of the obtained water solutions [7]
CO[C@H]1/C=C/O[C@@]2(C)Oc3c(C)c(O)c4c(O)c(c(/C=N/N5CCN(C)CC5)c(O)c4c3C2=O)NC(=O)/C(C)=C\C=C\[C@H](C)[C@H](O)[C@@H](C)[C@@H](O)[C@@H](C)[C@H](OC(C)=O)[C@@H]1C [Rifampicin],1500,–,–,–,–,–,–,–,–,–,–,–,–,–,–,–,–,–,–
"CO[C@H]1/C=C/O[C@@]2(C)Oc3c(C)c(O)c4c(O)c(c(/C=N/N5CCN(C/C=C/c6ccccc6)CC5)c(O)c4c3C2=O)NC(=O)/C(C)=C\C=C\[C@H](C)[C@H](O)[C@@H](C)[C@@H](O)[C@@H](C)[C@H](OC(C)=O)[C@@H]1C [T-9, 3-(4-cinnamyl-1-piperazinyl)-iminomethyl rifamycin SV, reference compound]",4000,unsoluble,33.70,233,2750,56.63,2,735,0.092,12400,8,543,8200,21.18,6,full organ sterilization,–,–,–
sodium salt of 3-(4-cinnamyl-1-piperazinyl)-iminomethyl rifamycin SV [T-11],–,"soluble in water, methanol, ethanol, acetone and unsoluble in isopropanol",38.02,299,2710,28.04,2,–,0.092,–,–,671,9200,20.04,2,–,good antibacterial activity,39.08,good stability
